Test results taken from PMC8617627, “Novel DYRK1A Inhibitor Rescues Learning and Memory Deficits in a Mouse Model of Down Syndrome” (Pharmaceuticals, 2021).
Read-outs that look alike come from different tables or passages of the source.

Columns and labels:
CHK1 = target: T1, CHK1 (Homo sapiens, UniProt O14757); assay: Kinase profile (33P ATP filter binding); format: biochemical
T1 sequence (O14757 1-476): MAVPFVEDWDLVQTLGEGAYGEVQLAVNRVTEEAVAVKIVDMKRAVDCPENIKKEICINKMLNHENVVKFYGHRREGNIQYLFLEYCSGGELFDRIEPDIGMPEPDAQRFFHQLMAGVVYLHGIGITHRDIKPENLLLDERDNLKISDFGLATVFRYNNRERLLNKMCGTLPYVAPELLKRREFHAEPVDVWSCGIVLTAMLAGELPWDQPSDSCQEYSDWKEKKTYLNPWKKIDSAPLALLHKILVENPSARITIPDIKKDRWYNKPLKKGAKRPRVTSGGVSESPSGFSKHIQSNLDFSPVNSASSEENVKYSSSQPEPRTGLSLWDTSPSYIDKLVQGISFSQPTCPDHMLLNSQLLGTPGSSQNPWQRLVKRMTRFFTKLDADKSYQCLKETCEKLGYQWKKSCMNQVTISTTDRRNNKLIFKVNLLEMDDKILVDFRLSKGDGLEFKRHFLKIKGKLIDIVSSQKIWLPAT

CHK2 = CHK2 (Homo sapiens, UniProt O96017); assay: Kinase profile (33P ATP filter binding); format: biochemical; details: read-out: Remaining protein kinase activity
CHK2, sequence (O96017 whole entry): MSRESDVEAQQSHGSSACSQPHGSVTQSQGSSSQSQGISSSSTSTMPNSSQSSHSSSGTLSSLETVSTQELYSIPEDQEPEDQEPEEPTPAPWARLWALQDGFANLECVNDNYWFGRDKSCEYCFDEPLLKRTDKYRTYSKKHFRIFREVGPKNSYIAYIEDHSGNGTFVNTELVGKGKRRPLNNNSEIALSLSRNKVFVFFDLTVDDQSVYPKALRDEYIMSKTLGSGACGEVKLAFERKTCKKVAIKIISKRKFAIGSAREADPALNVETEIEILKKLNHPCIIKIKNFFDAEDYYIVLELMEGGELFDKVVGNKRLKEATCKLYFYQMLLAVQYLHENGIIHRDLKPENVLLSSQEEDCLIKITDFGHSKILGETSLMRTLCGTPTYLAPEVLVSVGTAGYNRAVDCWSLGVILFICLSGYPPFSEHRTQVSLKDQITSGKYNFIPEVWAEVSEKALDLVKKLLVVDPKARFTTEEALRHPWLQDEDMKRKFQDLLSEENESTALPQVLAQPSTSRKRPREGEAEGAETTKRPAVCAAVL

IKKb = target: T2, IKKb (Homo sapiens, UniProt O14920); assay: Kinase profile (33P ATP filter binding); format: biochemical; details: read-out: Remaining protein kinase activity
T2 sequence (O14920 1-756): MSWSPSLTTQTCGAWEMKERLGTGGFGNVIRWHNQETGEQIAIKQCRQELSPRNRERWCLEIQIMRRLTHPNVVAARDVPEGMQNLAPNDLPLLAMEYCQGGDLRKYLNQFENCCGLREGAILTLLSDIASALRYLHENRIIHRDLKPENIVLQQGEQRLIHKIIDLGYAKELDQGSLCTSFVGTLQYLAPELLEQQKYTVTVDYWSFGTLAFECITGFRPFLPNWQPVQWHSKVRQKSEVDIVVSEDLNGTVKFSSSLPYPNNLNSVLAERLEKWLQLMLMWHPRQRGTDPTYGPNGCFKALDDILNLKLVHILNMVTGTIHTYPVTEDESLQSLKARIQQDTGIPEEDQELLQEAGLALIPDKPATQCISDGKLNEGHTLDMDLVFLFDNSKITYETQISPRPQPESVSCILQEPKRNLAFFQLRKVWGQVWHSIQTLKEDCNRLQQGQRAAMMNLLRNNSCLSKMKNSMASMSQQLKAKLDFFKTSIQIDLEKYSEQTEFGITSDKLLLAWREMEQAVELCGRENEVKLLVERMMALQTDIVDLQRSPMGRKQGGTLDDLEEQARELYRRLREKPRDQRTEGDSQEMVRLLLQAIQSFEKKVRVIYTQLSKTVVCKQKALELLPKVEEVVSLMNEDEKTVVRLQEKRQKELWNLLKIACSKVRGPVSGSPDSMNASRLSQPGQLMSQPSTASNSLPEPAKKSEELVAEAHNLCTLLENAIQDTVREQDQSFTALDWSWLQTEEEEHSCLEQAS

RSK1 = RSK1 (Homo sapiens, UniProt Q15418); assay: Kinase profile (33P ATP filter binding); format: biochemical; details: read-out: Remaining protein kinase activity
RSK1, sequence (Q15418 whole entry, species assumed): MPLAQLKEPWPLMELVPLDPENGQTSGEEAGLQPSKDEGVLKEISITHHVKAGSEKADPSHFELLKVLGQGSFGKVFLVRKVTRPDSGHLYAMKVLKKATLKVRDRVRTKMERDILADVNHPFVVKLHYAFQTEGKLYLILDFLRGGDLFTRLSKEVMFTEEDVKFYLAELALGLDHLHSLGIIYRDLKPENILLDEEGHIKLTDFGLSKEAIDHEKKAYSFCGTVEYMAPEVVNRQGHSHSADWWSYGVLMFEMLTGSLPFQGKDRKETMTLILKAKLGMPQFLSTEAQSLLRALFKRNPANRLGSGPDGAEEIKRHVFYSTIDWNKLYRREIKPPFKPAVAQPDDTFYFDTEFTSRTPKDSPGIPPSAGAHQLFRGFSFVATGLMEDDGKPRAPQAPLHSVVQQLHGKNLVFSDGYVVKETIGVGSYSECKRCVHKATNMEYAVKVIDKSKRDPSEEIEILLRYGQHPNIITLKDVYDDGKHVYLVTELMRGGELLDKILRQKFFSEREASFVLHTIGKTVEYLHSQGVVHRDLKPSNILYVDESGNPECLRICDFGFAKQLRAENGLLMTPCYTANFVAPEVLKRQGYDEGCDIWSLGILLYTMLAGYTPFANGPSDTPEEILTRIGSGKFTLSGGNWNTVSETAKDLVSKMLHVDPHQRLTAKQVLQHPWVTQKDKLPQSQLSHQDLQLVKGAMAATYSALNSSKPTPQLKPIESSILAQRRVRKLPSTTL

SYK = SYK (Homo sapiens, UniProt P43405); assay: Kinase profile (33P ATP filter binding); format: biochemical
SmMLCK = SmMLCK (Homo sapiens, UniProt Q15746); assay: Kinase profile (33P ATP filter binding); format: biochemical; details: read-out: Remaining protein kinase activity
SmMLCK, sequence (Q15746 923-1914): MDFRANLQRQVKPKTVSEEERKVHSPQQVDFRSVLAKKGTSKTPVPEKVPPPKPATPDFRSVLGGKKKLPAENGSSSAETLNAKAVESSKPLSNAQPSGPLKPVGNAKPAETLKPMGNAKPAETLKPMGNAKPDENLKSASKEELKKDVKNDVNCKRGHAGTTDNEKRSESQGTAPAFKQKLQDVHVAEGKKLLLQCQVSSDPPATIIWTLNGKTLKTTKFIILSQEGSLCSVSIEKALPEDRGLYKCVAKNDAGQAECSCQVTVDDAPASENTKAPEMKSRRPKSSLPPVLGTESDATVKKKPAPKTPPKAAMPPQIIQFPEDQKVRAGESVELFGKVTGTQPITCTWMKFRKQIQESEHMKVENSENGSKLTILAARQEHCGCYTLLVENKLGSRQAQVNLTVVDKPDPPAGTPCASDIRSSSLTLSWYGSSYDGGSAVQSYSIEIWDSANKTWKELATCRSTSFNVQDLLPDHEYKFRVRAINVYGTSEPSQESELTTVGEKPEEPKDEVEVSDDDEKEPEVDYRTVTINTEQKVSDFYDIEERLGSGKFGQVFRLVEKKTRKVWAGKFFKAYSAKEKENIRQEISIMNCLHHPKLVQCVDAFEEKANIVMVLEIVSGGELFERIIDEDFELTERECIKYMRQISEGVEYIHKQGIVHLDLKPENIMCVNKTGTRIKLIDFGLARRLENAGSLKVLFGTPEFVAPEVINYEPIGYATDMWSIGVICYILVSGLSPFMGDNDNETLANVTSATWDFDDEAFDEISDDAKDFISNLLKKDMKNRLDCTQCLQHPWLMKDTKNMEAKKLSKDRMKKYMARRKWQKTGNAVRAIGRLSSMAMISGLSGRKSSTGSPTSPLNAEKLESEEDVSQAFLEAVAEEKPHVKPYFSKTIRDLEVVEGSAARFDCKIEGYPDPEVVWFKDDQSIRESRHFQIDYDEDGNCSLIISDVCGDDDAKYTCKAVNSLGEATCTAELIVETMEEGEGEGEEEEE

Rat IV pharmacokinetics = format: in vivo; details: plasma
Protocol: For determining plasma pharmacokinetics blood samples (via cardiac puncture into heparinized tubes and centrifuged for plasma at 4 °C) were serially sampled via jugular vein at […], 0.5, 5, 15, and 30 min, 1, 2, 4, 8, and 24 h timepoints post dosing. Three animals per timepoint were sampled. All samples were stored at −20 °C pending analysis. Bioanalysis was carried out by UHPLC-TOF mass spectrometry using electrospray ionization against matrix matched calibration lines. The pharmacokinetic parameters were subsequently calculated by noncompartmental methods. Samples are prepared by protein precipitation and/or dilution: tissues are homogenized first. Analysis is carried out using a generic internal standard, with matrix-matched calibration standards bracketing the study samples. Samples were analyzed by high resolution accurate mass UHPLC-TOF MS. […] The mass spectrometer was operated in full scan mode, with positive ion electrospray data acquired over the m/z mass range 100–1000.

[1] = Mouse IV pharmacokinetics (plasma and brain); format: in vivo; details: for half-life: read-out: t½ (converted)
Protocol: In the mouse model, the PK-parameters were also determined in the brain samples. […] Samples are prepared by protein precipitation and/or dilution: tissues are homogenized first. Analysis is carried out using a generic internal standard, with matrix-matched calibration standards bracketing the study samples.
Samples were analyzed by high resolution accurate mass UHPLC-TOF MS. […] The mass spectrometer was operated in full scan mode, with positive ion electrospray data acquired over the m/z mass range 100–1000.

[2] = male, Sprague-Dawley, IV 1 mg/kg

**Q.** With COc1ccc2sc(-c3cncc(N)c3)nc2c1 [compound 1, 5-(5-Methoxybenzo[d]thiazol-2-yl)pyridin-3-amine] as the molecule, how does the “Remaining protein kinase activity” value (CHK1; 1 μM) read?
**A.** 101%

**Q.** What about the “Remaining protein kinase activity” value (CHK1; 100 μM) of the same molecule?
**A.** 86%

**Q.** And the remaining activity at 1 µM (CHK2; CHK2, 1 μM)?
**A.** 114%

**Q.** What about the remaining activity at 100 µM (CHK2; CHK2, 100 μM) of the same molecule?
**A.** 52%

**Q.** What about the remaining activity at 1 µM (IKKb; IKKb, 1 μM) of the same molecule?
**A.** 105%

**Q.** And the remaining activity at 100 µM (IKKb; IKKb, 100 μM)?
**A.** 38%

**Q.** And the remaining activity at 1 µM (RSK1; RSK1, 1 μM)?
**A.** 99%

**Q.** And the remaining activity at 100 µM (RSK1; RSK1, 100 μM)?
**A.** 42%

**Q.** And the “Remaining protein kinase activity” value (SYK; 1 μM)?
**A.** 113%

**Q.** What about the “Remaining protein kinase activity” value (SYK; 100 μM) of the same molecule?
**A.** 38%

**Q.** What about the remaining activity at 1 µM (SmMLCK) of the same molecule?
**A.** 98%

**Q.** What about the remaining activity at 100 µM (SmMLCK) of the same molecule?
**A.** 41%

**Q.** With COc1ccc2sc(-c3cncc(NC(C)=O)c3)nc2c1 [PST-001, N-(5-(5-Methoxybenzo[d]thiazol-2-yl)pyridin-3-yl)acetamide] as the molecule, how does the “Remaining protein kinase activity” value (CHK1; 1 μM) read?
**A.** 104%

**Q.** And the “Remaining protein kinase activity” value (CHK1; 100 μM)?
**A.** 115%

**Q.** And the remaining activity at 1 µM (CHK2)?
**A.** 105%

**Q.** What about the remaining activity at 100 µM (CHK2) of the same molecule?
**A.** 85%

**Q.** What about the remaining activity at 1 µM (IKKb) of the same molecule?
**A.** 111%

**Q.** What about the remaining activity at 100 µM (IKKb) of the same molecule?
**A.** 108%

**Q.** And the remaining activity at 1 µM (RSK1)?
**A.** 99%

**Q.** And the remaining activity at 100 µM (RSK1)?
**A.** 88%

**Q.** What about the “Remaining protein kinase activity” value (SYK; 1 μM) of the same molecule?
**A.** 112%

**Q.** What about the “Remaining protein kinase activity” value (SYK; 100 μM) of the same molecule?
**A.** 58%

**Q.** What about the remaining activity at 1 µM (SmMLCK) of the same molecule?
**A.** 118%

**Q.** And the remaining activity at 100 µM (SmMLCK)?
**A.** 99%

**Q.** What about the AUCall (Rat IV pharmacokinetics; IV 1 mg/kg) of the same molecule?
**A.** 158 h ∗ ng/mL

**Q.** What about the half-life (Rat IV pharmacokinetics; Sprague-Dawley (rat), C57BL/6 (mouse), intravenous, oral, mouse or rat, IV or PO, read-out: t1/2 in plasma) of the same molecule?
**A.** < 60 min

**Q.** What about the Cmax (Rat IV pharmacokinetics; [2]) of the same molecule?
**A.** 647 ng/mL

**Q.** And the Vd (Rat IV pharmacokinetics; [2])?
**A.** 2.39 L/kg

**Q.** What about the clearance (Rat IV pharmacokinetics; [2]) of the same molecule?
**A.** 105 mL/min/kg

**Q.** And the Tmax (Rat IV pharmacokinetics; male, Sprague-Dawley, iv, 1 mg/kg, IV 1 mg/kg, read-out: Tmax)?
**A.** 1.8 min

**Q.** And the half-life (Rat IV pharmacokinetics; male, Sprague-Dawley, iv, 1 mg/kg, IV 1 mg/kg, read-out: t½ (converted))?
**A.** 43.2 min

**Q.** What about the half-life (Rat IV pharmacokinetics; male, Sprague-Dawley, iv, 1 mg/kg, IV bolus 1 mg/kg, circulation, read-out: t½ (converted)) of the same molecule?
**A.** 43 min

**Q.** And the Tmax (Rat IV pharmacokinetics; male, Sprague-Dawley, iv, 1 mg/kg, IV bolus 1 mg/kg, read-out: Time of maximum venous concentration (Tmax) (converted))?
**A.** 2 min

**Q.** And the Cmax ([1]; C57Bl, IV 1 mg/kg, brain)?
**A.** 867 ng/mL

**Q.** And the Tmax ([1]; C57Bl, IV 1 mg/kg, brain)?
**A.** 4.8 min

**Q.** And the half-life ([1]; C57Bl, IV 1 mg/kg, brain)?
**A.** 9 min

**Q.** And the Cmax ([1]; C57Bl, IV 1 mg/kg, plasma)?
**A.** 362 ng/mL

**Q.** What about the Tmax ([1]; C57Bl, IV 1 mg/kg, plasma) of the same molecule?
**A.** 4.8 min

**Q.** And the Vd ([1]; C57Bl, IV 1 mg/kg, plasma)?
**A.** 1.39 L/kg

**Q.** And the clearance ([1]; C57Bl, IV 1 mg/kg, plasma)?
**A.** 198 mL/min/kg

**Q.** And the half-life ([1]; C57Bl, IV 1 mg/kg, plasma)?
**A.** 9 min

**Q.** What about the AUCall ([1]; IV 1 mg/kg, brain) of the same molecule?
**A.** 200 h ∗ ng/mL

**Q.** What about the AUCall ([1]; IV 1 mg/kg, plasma) of the same molecule?
**A.** 84 h ∗ ng/mL

**Q.** And the “Time of Cmax” value ([1]; IV bolus, plasma)?
**A.** 5 min
